# In article PMC8041284, “Tunable Methacrylamides for Covalent Ligand Directed Release Chemistry” (Journal of the American Chemical Society, 2021):
# Like-named read-outs stand apart in the source and are kept apart here.
# Biological target: BTK (Homo sapiens, UniProt Q06187)
# Test: biochemical
# [1] = read-out: BTK inhibition (%), 0.75 uM BTK, […] probe 3l, 15 min preincubation
# BTK, sequence (Q06187 402-655 limits assumed): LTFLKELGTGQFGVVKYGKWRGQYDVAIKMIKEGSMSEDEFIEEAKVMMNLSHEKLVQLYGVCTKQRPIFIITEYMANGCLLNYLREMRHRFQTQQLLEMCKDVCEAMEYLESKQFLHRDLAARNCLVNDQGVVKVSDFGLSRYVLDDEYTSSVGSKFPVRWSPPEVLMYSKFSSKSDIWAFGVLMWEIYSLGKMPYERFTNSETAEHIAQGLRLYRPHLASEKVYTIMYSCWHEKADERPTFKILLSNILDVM
SMILES,inhibition at 10 µM [1] [%],inhibition at 10 µM (read-out: BTK inhibition (%)) [%]
CC(C)=CC[C@@H](O)C1=CC(=O)c2c(O)ccc(O)c2C1=O [PCM-0215694],69.7,–
COc1cccc(OC)c1C(=O)OCc1cc(O)ccc1O[C@@H]1O[C@H](CO)[C@@H](O)[C@H](O)[C@H]1O [PCM-0216173],0,–
Cc1coc2c1C(=O)C(=O)c1c-2ccc2c1CCCC2(C)C [PCM-0091329],16.3,–
NCCC[C@H](N)C(=O)O [PCM-0216253],-3.4,–
COC(=O)N1CCN(Cc2cccc(NC(=O)Nc3ccc(C)nc3)c2F)CC1 [PCM-0214694],0.8,–
C[C@H]1O[C@H](O[C@H]2[C@H](O)[C@@H](O)[C@@H](O[C@@H]([C@H](O)[C@@H](O)C=O)[C@H](O)CO)O[C@@H]2CO)[C@H](O)[C@@H](O)[C@@H]1N[C@H]1C=C(CO)[C@@H](O)[C@H](O)[C@H]1O [PCM-0214720],-7,–
COc1cc2c(cc1O)C[C@H]1c3cc(O)c(OC)cc3CC[N+]1(C)C2 (stereo partly drawn) [PCM-0216444],2.3,–
CC(C)(C)n1nc(-c2ccc(Cl)cc2)c2c(N)ncnc21 [PCM-0095568],47.6,–
O=c1cc(O)c(Cl)c[nH]1 [PCM-0095217],-3.9,–
CC1(C)CC[C@]2(C(=O)O)CC[C@]3(CO)C(=CC[C@@H]4[C@@]5(C)C[C@H](O)[C@H](O[C@@H]6O[C@H](CO)[C@@H](O)[C@H](O)[C@H]6O)[C@@](C)(C(=O)O)[C@@H]5CC[C@]43C)[C@@H]2C1 [PCM-0216380],11.6,–
CN1CCN(C2=Nc3cc(Cl)ccc3Nc3ccccc32)CC1 [PCM-0064549],4.7,–
CC(C)(C)OC(=O)N[C@@H]1CCCC[C@H]1N [PCM-0215045],-24.1,–
COC1=C[C@]23CCCN2CCc2cc4c(cc2[C@@H]3[C@@H]1O)OCO4 [PCM-0214978],–,0
Cc1ccccc1-n1c(CF)nc2ccc(N)cc2c1=O [PCM-0214908],–,2.3
Cc1cn(CCN2CCN(c3ccccc3-c3cc(C#N)cc(C(=O)NCCCN4CCCC4)c3)CC2)c2ccccc12 [PCM-0215709],27,–
Fc1ccc(CNc2ncnc3ccc(F)cc23)cc1 [PCM-0215554],-17,–
Cc1cc(SCc2sc(-c3ccc(C(F)(F)F)cc3)nc2C)ccc1OCC(=O)O [PCM-0215226],23.9,–
CCCCCC1=C(C)CCC1=O [PCM-0216102],-16.2,–

SMILES,inhibition at 10 µM [1] [%],inhibition at 10 µM (read-out: BTK inhibition (%)) [%]
COc1cc(Nc2ncc3c(n2)-c2ccc(Cl)cc2C(c2c(F)cccc2OC)=NC3)ccc1C(=O)O [PCM-0094940],83.4,–
COc1cc2c(=O)c3c(O)c([C@@H]4O[C@H](CO[C@@H]5OC[C@](O)(CO)[C@H]5O)[C@@H](O)[C@H](O)[C@H]4O)c(O)cc3oc2cc1O [PCM-0216492],-13.1,–
C=C(c1ccc(C(=O)O)cc1)c1cc2c(cc1C)C(C)(C)CCC2(C)C [PCM-0095260],14,–
O=C(NO)c1ccc(CC(=O)N(CCO)c2ccccc2)cc1 [PCM-0215415],10.8,–
C[C@H]1COC2=C1C(=O)C(=O)c1c2ccc2c1CCCC2(C)C [PCM-0091097],15.6,–
COc1cc(OCc2cccc(-c3ccccc3)c2C)cc(OC)c1CN1CCCC[C@H]1C(=O)O [PCM-0215607],-35.2,–
COc1c(-c2ccc3cc(NS(C)(=O)=O)ccc3c2)cc(-n2ccc(=O)[nH]c2=O)cc1C(C)(C)C [PCM-0216081],73.4,–
COc1cc2c(cc1OC)CC(=O)N(CCCN(C)C[C@H]1Cc3cc(OC)c(OC)cc31)CC2 [PCM-0095255],-3.1,–
O=C1C=C2C=C[C@@H](O)[C@H](O)[C@H]2O1 [PCM-0216441],25.5,–
Cc1cc(Nc2ccc(NC(=O)c3ccc(Nc4ccnc5ccccc45)cc3)cc2)nc(N)n1 [PCM-0215241],17,–
Cc1ccccc1CN1C(=O)C2=C(CCN(Cc3ccccc3)C2)N2CCN=C12 [PCM-0215534],–,-13.8
COc1ccc(C(C)=O)c(O)c1 [PCM-0091399],6.2,–
COc1cc(N2CCN(C)CC2)ccc1Nc1ncc2c(n1)N(C)c1ccccc1C(=O)N2 [PCM-0213372],11,–
O=C(NCCO)c1cccc(-c2cc(Nc3ccc(OC(F)(F)F)cc3)ncn2)c1 [PCM-0213352],-24.1,–
Clc1ccccc1CN1CCc2sccc2C1 [PCM-0085848],-2.6,–
NCCOc1ccc(Cl)cc1C(=O)Nc1ccc([N+](=O)[O-])cc1Cl [PCM-0215860],7.7,–
CCNC(=O)c1noc(-c2cc(Cl)c(O)cc2O)c1-c1ccc(OC)cc1 [PCM-0215317],11.6,–
NC(=O)[C@@H]1CC[C@@H]2CN1C(=O)N2OS(=O)(=O)O [PCM-0214883],-9.3,–
